Results from patent publication US8163737B2 (Vertex Pharmaceuticals Incorporated, priority 2006, dated 2012).

Legend:
endogenous CGRP receptor = endogenous CGRP receptor (Homo sapiens, UniProt O60894+Q16602); assay: CGRP functional antagonism using SK-N-MC-BLA (4C10), β-lactamase transcriptional reporter assay; type: cell-based; conditions: SK-N-MC (4C10) cells, inhibition of β-lactamase expression in the presence of 200 pM CGRP
[1] = target: T1, CGRP receptor (SK-N-MC membrane) (Homo sapiens, UniProt O60894+Q16602); assay: I125-CGRP binding displacement assay on purified SK-N-MC membrane
T1 construct: Purified SK-N-MC membrane was purchased from Perkin Elmer; purchased Perkin Elmer; host or cells: SK-N-MC membrane
T1 sequence (Q16602 23-461): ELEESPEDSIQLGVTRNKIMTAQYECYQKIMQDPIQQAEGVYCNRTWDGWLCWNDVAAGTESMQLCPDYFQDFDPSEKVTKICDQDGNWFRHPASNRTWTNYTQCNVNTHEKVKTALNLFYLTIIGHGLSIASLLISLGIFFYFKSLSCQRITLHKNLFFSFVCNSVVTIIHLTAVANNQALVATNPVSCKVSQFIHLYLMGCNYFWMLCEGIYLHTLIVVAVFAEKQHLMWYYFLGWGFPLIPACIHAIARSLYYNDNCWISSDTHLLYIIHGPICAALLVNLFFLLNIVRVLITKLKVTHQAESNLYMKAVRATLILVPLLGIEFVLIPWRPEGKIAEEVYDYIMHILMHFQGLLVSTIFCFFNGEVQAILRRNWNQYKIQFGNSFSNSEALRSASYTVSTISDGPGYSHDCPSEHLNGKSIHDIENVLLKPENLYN
T1 sequence (O60894 27-148): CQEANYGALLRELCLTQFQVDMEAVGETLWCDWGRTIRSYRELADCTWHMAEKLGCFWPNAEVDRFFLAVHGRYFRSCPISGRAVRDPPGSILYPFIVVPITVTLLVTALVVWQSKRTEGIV
In short: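 Displacement of I125-CGRP binding was measured by filtration and scintillation counting after 2 h room-temperature incubation with compound and SK-N-MC membranes (buffer pH 7.4, MgCl2, BSA, Tween). Percent displacement calculated against total binding and 1 uM cold CGRP nonspecific controls, then curve-fitted.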

Chain of endogenous CGRP receptor (Q16602 23-461): as the sequence (Q16602 23-461) above
Chain of endogenous CGRP receptor (O60894 27-148): as the sequence (O60894 27-148) above

SMILES	IC50 (endogenous CGRP receptor)	Ki [1]
CC(C)(C)CCN1C(=O)[C@H](CC(=O)N2CCC(n3c(=O)[nH]c4ncccc43)CC2)SC1c1cccc(F)c1N1CCC(F)(F)C1 (some centres unmarked) [Compound 482]	1 to 5 µM	< 1 µM
CC(C)(C)CCN1C(=O)[C@H](CC(=O)N2CCC(N3CCc4ccccc4NC3=O)CC2)SC1c1cccc(F)c1N1CCC(F)(F)C1 (some centres unmarked) [Compound 483]	> 5 µM	< 1 µM
CC(C)(C)CCN1C(=O)[C@H](CC(=O)N2CCC(N3CCc4ccccc4NC3=O)CC2)SC1c1cccc(F)c1N1CC[C@H](O)C1 (some centres unmarked) [Compound 485]	1 to 5 µM	< 1 µM
CC(C)(C)CCN1C(=O)[C@H](CC(=O)N2CCC(N3CCc4ccccc4NC3=O)CC2)SC1c1ccn(C2CCN(C(=O)OC(C)(C)C)CC2)n1 (some centres unmarked) [Compound 490]	> 5 µM	< 1 µM
CC(C)(C)CCN1C(=O)[C@H](CC(=O)N2CCC(N3CCc4ccccc4NC3=O)CC2)SC1c1cnc(C2CCN(C(=O)OC(C)(C)C)CC2)s1 (stereo partly drawn) [Compound 492, tert-Butyl 4-(5-((5S)-3-(3,3-dimethylbutyl)-4-oxo-5-(2-oxo-2-(4-(2-oxo-4,5-dihydro-1H-benzo[d][1,3]diazepin-3(2H)-yl)piperidin-1-yl)ethyl)thiazolidin-2-yl)thiazol-2-yl)piperidine-1-carboxylate]	1 to 5 µM	< 1 µM
CC(C)CN1CCC(c2ncc(C3S[C@@H](CC(=O)N4CCC(N5CCc6ccccc6NC5=O)CC4)C(=O)N3CCC(C)(C)C)s2)CC1 (stereo partly drawn) [Compound 498, (5S)-3-(3,3-Dimethylbutyl)-2-(2-(1-isobutylpiperidin-4-yl)thiazol-5-yl)-5-(2-oxo-2-(4-(2-oxo-4,5-dihydro-1H-benzo[d][1,3]diazepin-3(2H)-yl)piperidin-1-yl)ethyl)thiazolidin-4-one]	< 1 µM	< 1 µM
CC(C)(C)CCN1C(=O)[C@H](CC(=O)N2CCC(N3CCc4ccccc4NC3=O)CC2)S[C@@H]1c1ccccc1C1CCNCC1 [Compound 501, 4,5-Dihydro-3-(1-(2-((2R,5S)-3-(3,3-dimethylbutyl)-4-oxo-2-(2-(piperidin-4-yl)phenyl)thiazolidin-5-yl)acetyl)piperidin-4-yl)-1H-benzo[d][1,3]diazepin-2(3H)-one]	< 1 µM	< 1 µM
CC(C)(C)CCN1C(=O)[C@H](CC(=O)N2CCC(N3CCc4ccccc4NC3=O)CC2)S[C@H]1c1ccccc1C1CCNCC1 [Compound 502, 4,5-Dihydro-3-(1-(2-((2S,5S)-3-(3,3-dimethylbutyl)-4-oxo-2-(2-(piperidin-4-yl)phenyl)thiazolidin-5-yl)acetyl)piperidin-4-yl)-1H-benzo[d][1,3]diazepin-2(3H)-one]	< 1 µM	< 1 µM
CC(C)(C)N1CCN(c2c(F)cccc2[C@H]2S[C@@H](CC(=O)N3CCC(N4CCc5ccccc5NC4=O)CC3)C(=O)N2CCc2ccc(F)cc2)CC1 [Compound 503]	< 1 µM	< 1 µM
CC(C)(C)N1CCN(c2c(F)cccc2[C@@H]2S[C@@H](CC(=O)N3CCC(N4CCc5ccccc5NC4=O)CC3)C(=O)N2CCc2ccc(F)cc2)CC1 [Compound 504]	< 1 µM	< 1 µM
CC(C)(C)N1CCN(c2c(F)cccc2C2S[C@@H](CC(=O)N3CCC(n4c(=O)[nH]c5ncccc54)CC3)C(=O)N2CCc2ccc(F)cc2)CC1 (some centres unmarked) [Compound 505]	< 1 µM	< 1 µM
CC(C)(C)N1CCN(c2c(F)cccc2[C@H]2S[C@@H](CC(=O)N3CCC(N4CCc5ccccc5NC4=O)CC3)C(=O)N2CCc2ccccc2)CC1 [Compound 507]	< 1 µM	< 1 µM
CC(C)(C)N1CCN(c2c(F)cccc2[C@@H]2S[C@@H](CC(=O)N3CCC(N4CCc5ccccc5NC4=O)CC3)C(=O)N2CCc2ccccc2)CC1 [Compound 508]	< 1 µM	< 1 µM
CC(C)(C)N1CCN(c2c(F)cccc2C2S[C@@H](CC(=O)N3CCC(n4c(=O)[nH]c5ncccc54)CC3)C(=O)N2CCc2ccccc2)CC1 (some centres unmarked) [Compound 509]	< 1 µM	< 1 µM
CC(C)(C)CCN1C(=O)[C@H](CC(=O)N2CCC(N3CCc4ccccc4NC3=O)CC2)SC1c1ccccc1N1CCN(C(=O)OC(C)(C)C)CC1=O (some centres unmarked) [Compound 510]	< 1 µM	< 1 µM
CC(C)(C)CCN1C(=O)[C@H](CC(=O)N2CCC(N3CCc4ccccc4NC3=O)CC2)SC1c1ccccc1N1CCNCC1=O (some centres unmarked) [Compound 511]	< 1 µM	< 1 µM
CC(C)(C)CCN1C(=O)[C@H](CC(=O)N2CCC(N3CCc4ccccc4NC3=O)CC2)SC1c1ccccc1N1CCNCC1=O (some centres unmarked) [Compound 512]	< 1 µM	< 1 µM
CN(C)CCNc1c(F)cccc1C1S[C@@H](CC(=O)N2CCC(N3CCc4ccccc4NC3=O)CC2)C(=O)N1CCC(C)(C)C (stereo partly drawn) [Compound 513, 3-(1-(2-((5S)-2-(2-(2-(Dimethylamino)ethylamino)-3-fluorophenyl)-3-(3,3-dimethylbutyl)-4-oxothiazolidin-5-yl)acetyl)piperidin-4-yl)-4,5-dihydro-1H-benzo[d][1,3]diazepin-2(3H)-one]	< 1 µM	< 1 µM

More lines, now with the values ahead:

IC50 (endogenous CGRP receptor)	Ki [1]	SMILES
< 1 µM	< 1 µM	CC(C)(C)CCN1C(=O)[C@H](CC(=O)N2CCC(n3c(=O)[nH]c4ncccc43)CC2)SC1c1cccc(F)c1N1CCC(O)C1 (some centres unmarked) [Compound 484]
< 1 µM	< 1 µM	CC(C)(C)CCN1C(=O)[C@H](CC(=O)N2CCC(N3CCc4ccccc4NC3=O)CC2)SC1c1cccc(F)c1N1CC[C@H](O)C1 (some centres unmarked) [Compound 486]
< 1 µM	< 1 µM	CC(C)(C)CCN1C(=O)[C@H](CC(=O)N2CCC(N3CCc4ccccc4NC3=O)CC2)SC1c1cccc(F)c1N1CC[C@@H](O)C1 (some centres unmarked) [Compound 487]
< 1 µM	< 1 µM	CC(C)(C)N1CCN(c2c(F)cccc2[C@@H]2S[C@@H](CC(=O)N3CCC(N4CCc5ccccc5NC4=O)CC3)C(=O)N2CC2CC2)CC1 [Compound 488]
< 1 µM	< 1 µM	CC(C)(C)CCN1C(=O)[C@H](CC(=O)N2CCC(N3CCc4ccccc4NC3=O)CC2)SC1c1ccn(C2CCNCC2)n1 (some centres unmarked) [Compound 491]
< 1 µM	< 1 µM	CC(C)CN1C(=O)[C@H](CC(=O)N2CCC(N3CCc4ccccc4NC3=O)CC2)SC1c1cccc(F)c1N1CCN(C(C)(C)C)CC1 (some centres unmarked) [Compound 493]
< 1 µM	< 1 µM	CC(C)CN1C(=O)[C@H](CC(=O)N2CCC(N3CCc4ccccc4NC3=O)CC2)SC1c1cccc(F)c1N1CCN(C(C)(C)C)CC1 (some centres unmarked) [Compound 494]
< 1 µM	< 1 µM	CC(C)CN1C(=O)[C@H](CC(=O)N2CCC(n3c(=O)[nH]c4ncccc43)CC2)S[C@@H]1c1cccc(F)c1N1CCN(C(C)(C)C)CC1 [Compound 495]
< 1 µM	< 1 µM	CC(C)CN1C(=O)[C@H](CC(=O)N2CCC(n3c(=O)[nH]c4ncccc43)CC2)S[C@H]1c1cccc(F)c1N1CCN(C(C)(C)C)CC1 [Compound 496]
< 1 µM	< 1 µM	CC(C)(C)CCN1C(=O)[C@H](CC(=O)N2CCC(N3CCc4ccccc4NC3=O)CC2)SC1c1cnc(C2CCNCC2)s1 (stereo partly drawn) [Compound 497, (5S)-3-(3,3-Dimethylbutyl)-5-(2-oxo-2-(4-(2-oxo-4,5-dihydro-1H-benzo[d][1,3]diazepin-3(2H)-yl)piperidin-1-yl)ethyl)-2-(2-(piperidin-4-yl)thiazol-5-yl)thiazolidin-4-one]
